The subject of data set [1] is STC-1. The data set is described as follows: Anti-obesity activity in mouse STC-1 cells assessed as increase in Tas2r105 mRNA expression level at 5 to 10 ug/ml incubated for 2 hrs by RT-qPCR analysis. Type of data set: functional, cell-based. The following applies: dose 5-10 µg/ml. (In general: Real-time PCR tracks product formation cycle by cycle.)
In data set [2] the test system is STC-1. The data set is described as follows: Agonist activity at Tas2r in mouse STC-1 cells assessed as increase in intracellular calcium level measured every 10 sec for 5 mins by Fluo-4-AM dye based fluorescence analysis. Type of data set: cell-based. The following applies: filed as agonist, dose 5-10 µg/ml. (Calcium assays in cells follow changes in intracellular calcium, usually with a dye or a luminescent sensor.)

The nature of data set [3]: Cytotoxicity against mouse STC-1 cells assessed as reduction in cell viability at 5 to 10 ug/ml after 2 to 24 hrs by MTT assay. Type of data set: toxicity, cell-based. The following applies: dose lower 5 µg/ml, time lower 2 hrs, dose upper 10 µg/ml, time upper 24 hrs. A general note: Tetrazolium dyes change colour on reduction, which living cells bring about.
The test system of data set [4] is STC-1. The experiment in a line: Anti-obesity activity in mouse STC-1 cells assessed as increase in GLP-1 secretion at 10 ug/ml incubated for 120 mins by ELISA. Type of data set: functional, cell-based. The following applies: dose 10.0 µg/ml.
Data set [5] relates to STC-1. The data set is described as follows: Anti-obesity activity in mouse STC-1 cells assessed as increase in […] mRNA expression level at 5 to 10 ug/ml incubated for 2 hrs by RT-qPCR analysis. Type of data set: functional, cell-based. The following applies: dose 5-10 µg/ml.
The test system of data set [6] is STC-1. The experiment in a line: Anti-obesity activity in mouse STC-1 cells assessed as increase in Tas2r138 mRNA expression level at 5 to 10 ug/ml incubated for 2 hrs by RT-qPCR analysis. Type of data set: functional, cell-based. The following applies: dose 5-10 µg/ml.
Data set [7] concerns STC-1. The experiment in a line: Anti-obesity activity in mouse STC-1 cells assessed as increase in Tas2r120 mRNA expression level at 5 to 10 ug/ml incubated for 2 hrs by RT-qPCR analysis. The following applies: dose 5-10 µg/ml. Type of data set: functional, cell-based.
The test system of data set [8] is STC-1. The data set is described as follows: Anti-obesity activity in mouse STC-1 cells assessed as increase in CCK secretion at 10 ug/ml incubated for 120 mins by EIA. Type of data set: functional, cell-based. The following applies: dose 10.0 µg/ml.
Data set [9] has as its system STC-1. The data set is described as follows: Anti-obesity activity in mouse STC-1 cells assessed as increase in Tas2r119 mRNA expression level at 5 to 10 ug/ml incubated for 2 hrs by RT-qPCR analysis. Type of data set: functional, cell-based. The following applies: dose 5-10 µg/ml.
In data set [10] the test system is STC-1. The experiment in a line: Anti-obesity activity in mouse STC-1 cells assessed as increase in GLP-1 secretion at 5 to 10 ug/ml incubated for 120 mins by ELISA. Type of data set: functional, cell-based. The following applies: dose 5-10 µg/ml.
A short description of data set [11]: Cytotoxicity against mouse STC-1 cells assessed as reduction in cell viability at 5 to 50 ug/ml after 2 to 24 hrs by MTT assay. Type of data set: toxicity, cell-based. The following applies: dose lower 5 µg/ml, time lower 2 hrs, dose upper 50 µg/ml, time upper 24 hrs.
Data set [12] can be described thus: Anti-obesity activity in mouse STC-1 cells assessed as increase in GLP-1 secretion by measuring fold change at 5 to 10 ug/ml incubated for 120 mins by ELISA. Type of data set: functional. The following applies: dose 5-10 µg/ml, 2 h.
The subject of data set [13] is STC-1. The experiment in a line: Anti-obesity activity in mouse STC-1 cells assessed as increase in GLP-1 secretion incubated for 120 mins by ELISA. Type of data set: functional, cell-based. The following applies: dose 5-10 µg/ml.
Data set [14] can be described thus: Cytotoxicity against mouse STC-1 cells assessed as reduction in cell viability after 24 hrs by MTT assay. Type of data set: toxicity, cell-based.
Data set [15] in a line: Cytotoxicity against mouse STC-1 cells assessed as cell viability at 10 ug/ml after 24 hrs by MTT assay relative to control. The following applies: at 10 µg/mL, read-out: Activity. Type of data set: toxicity, cell-based.
Data set [16] in a line: Anti-obesity activity in mouse STC-1 cells assessed as GLP-1 secretion at 10 ug/ml incubated for 120 mins by ELISA (reference value: 13.29 +/- 1.3 pg/ml). Type of data set: functional. The following applies: dose 10 µg/ml, 2 h.
Data set [17] in a line: Cytotoxicity against mouse STC-1 cells assessed as reduction in cell viability at 50 ug/ml after 2 to 24 hrs by MTT assay. The following applies: time 2-24 hrs, dose 50 µg/ml. Type of data set: toxicity, cell-based.
Data set [18] in a line: Anti-obesity activity in mouse STC-1 cells assessed as GLP-1 secretion at 5 ug/ml incubated for 120 mins by ELISA (reference value: 13.29 +/- 1.3 pg/ml). Type of data set: functional. The following applies: dose 5 µg/ml, 2 h.
Data set [19] is described as follows: Cytotoxicity against mouse STC-1 cells assessed as reduction in cell viability after 2 hrs by MTT assay. Type of data set: toxicity, cell-based.

Converted amounts (≈) assume the structure as drawn. The source made the active and inactive calls. No cut-off for these calls is given here.

Regarding `CC(C)=CCC1=C(O)C(C(=O)C(C)C)=C(O)C(CC=C(C)C)(CC=C(C)C)C1=O`, the result in the data set with STC-1 [1], in the data set on STC-1 [4], in the data set with STC-1 [5], in the data set with STC-1 [6], in the data set with STC-1 [7] and with STC-1 [8] was Active. Further, the result with STC-1 [9] was Active. The Activity result in the data set with STC-1 [2] was “Dose-Dependent Effect”; in data set [3] it was “Non-Toxic”.

As for `CC(C)=CCC1=C(O)[C@@](O)(CC=C(C)C)C(=O)C(C(=O)C(C)C)=C1O`, the values for the Activity entry (in the data set with STC-1 [2]; in data set [11]) were “Dose-Dependent Effect” and “Non-Toxic”, respectively. The result in the data set on STC-1 [5] and in the data set on STC-1 [6] was Active. In the data set with STC-1 [10], the outcome was inactive.

`COc1cc(O)c(CC=C(C)C)c(O)c1C(=O)/C=C/c1ccc(O)cc1` [XANTHOHUMOL]: in data set [12], the “fold change (FC)” value was about 2. Also, the Activity result is “Dose-Dependent Effect” in the data set with STC-1 [2]; “Dose-Dependent Effect” with STC-1 [13]; 28.39 pg/mL in [16]; “Toxic” in [17]; 20.39 pg/mL in [18]. In addition, the IC50 – broadly, the concentration needed to halve the response being measured – at 24 h in [14] was 8 µg/mL (≈ 22.6 µM). For the same compound, the viability at 24 h, 10 ug/ml in data set [15] came out at 35%. For the same compound, the outcome with STC-1 [6] and in the data set on STC-1 [8] was Active. The IC50 at 2 h in data set [19] stood at 35.3 µg/mL (≈ 99.6 µM).

Values taken from ChEMBL document CHEMBL5584312, “Insight into the Interaction of Humulus lupulus L. Specialized Metabolites and Gastrointestinal Bitter Taste Receptors: In Vitro Study in STC-1 Cells and Molecular Docking” (J Nat Prod, 2024).
